Results taken from PubChem BioAssay AID296 (DTP/NCI, 2004).
Several values for one entry are separate records, joined by “and”; a condition that tells them apart may be missing. Equal entries are not always repeated. Results filed as inconclusive are left out. *1 amine or outer side, *2 acyl side, *3 side chain or, on linkers, in order; H or OH if unused. Where a SMILES comes first, the peptide text is derived from it. Bridges are numbered along the chain shown (N, C = ends). Roman numbers before positions name the chains, in order. [ ]: non-standard residue; d: D form. Actinocin(1to9) = Cc1c2oc3c(C)ccc(C(=O)[*:2])c3nc-2c(C(=O)[*:1])c(N)c1=O; NMeV = CN[CH](C(=O)O)C(C)C; Aze = O=C(O)[CH]1CCN1; Sar = CNCC(=O)O

System: MX-1 breast xenograft, nude mice, tumor weight T/C
Experiment: NCI In Vivo Anticancer Drug Screen. Data for tumor model Human Mammary Carcinoma MX-1 Xenograft (intrarenal inoculation) in NU/NU Swiss (nude) mice
Conditions: endpoint: mean tumor weight change, higher = larger tumour
Description: The antitumor activity of compounds was measured in mice bearing transplantable tumors. Survival or tumor size were measured and the results are expressed as the measurement made in the treated group (T) divided by the measurement made in the vehicle treated control group (C). The tumor model used in this assay is Human Mammary Carcinoma MX-1 Xenograft (intrarenal inoculation) in NU/NU Swiss (nude) mice

[1] = dose: 4.0 mg/kg/injection, schedule: Q01DX010 (sc), vehicle: saline
[2] = dose: 300.0 mg/kg/injection, schedule: Q04DX003 (sc), vehicle: saline with Tween-80
[3] = dose: 600.0 mg/kg/injection, schedule: Q04DX003 (sc), vehicle: saline with Tween-80
[4] = dose: 1200.0 mg/kg/injection, schedule: Q04DX003 (sc), vehicle: saline with Tween-80
[5] = dose: 150.0 mg/kg/injection, schedule: Q04DX003 (sc), vehicle: Klucel (hydroxypropylcellulose) (HPC)
[6] = dose: 300.0 mg/kg/injection, schedule: Q04DX003 (sc), vehicle: Klucel (hydroxypropylcellulose) (HPC)
[7] = dose: 600.0 mg/kg/injection, schedule: Q04DX003 (sc), vehicle: Klucel (hydroxypropylcellulose) (HPC)
[8] = dose: 1200.0 mg/kg/injection, schedule: Q04DX003 (sc), vehicle: Klucel (hydroxypropylcellulose) (HPC)

Compound: Cc1c2oc3c(C)ccc(C(=O)NC4C(=O)NC(C(C)C)C(=O)N5CCCC5C(=O)N(C)CC(=O)N(C)C(C(C)C)C(=O)OC4C)c3nc-2c(C(=O)NC2C(=O)NC(C(C)C)C(=O)N3CCC3C(=O)N(C)CC(=O)N(C)C(C(C)C)C(=O)OC2C)c(N)c1=O (stereo not drawn) (I: TV[Aze][Sar][NMeV] / II: TVP[Sar][NMeV]; ester I:1-I:C, II:1-II:C; linker I:N-II:N via Actinocin(1to9); configuration not given here)
- T/C (dose: 0.25 mg/kg/injection, schedule: Q04DX003 (sc), vehicle: saline + alcohol): 53 % of control
- T/C (dose: 0.5 mg/kg/injection, schedule: Q04DX003 (sc), vehicle: saline + alcohol): 12 % of control
- T/C (dose: 0.5 mg/kg/injection, schedule: Q04DX003 (sc), vehicle: saline): 112 % of control
- T/C (dose: 1.0 mg/kg/injection, schedule: Q04DX003 (sc), vehicle: saline + alcohol): -80 % of control
- T/C (dose: 1.0 mg/kg/injection, schedule: Q04DX003 (sc), vehicle: saline): 47 % of control
- T/C (dose: 2.0 mg/kg/injection, schedule: Q04DX003 (sc), vehicle: saline): 40 % of control

Compound: CC(=O)CC(C)=O.CC(=O)CC(C)=O.O=N[O-].O=N[O-].[Co]
- T/C (dose: 75.0 mg/kg/injection, schedule: Q04DX003 (sc), vehicle: saline with Tween-80): 72 % of control
- T/C (dose: 150.0 mg/kg/injection, schedule: Q04DX003 (sc), vehicle: saline with Tween-80): 67 % of control

Compound: O=NN(CCCl)C(=O)NCCCl
- T/C (dose: 2.0 mg/kg/injection, schedule: Q01DX010 (sc), vehicle: saline): 74 % of control
- T/C [1]: 76 % of control
- T/C (dose: 4.0 mg/kg/injection, schedule: Q01DX010 (sc), vehicle: suspension in saline): 80 % of control
- T/C (dose: 7.5 mg/kg/injection, schedule: Q04DX003 (sc), vehicle: suspension in saline): 80 % of control
- T/C (dose: 8.0 mg/kg/injection, schedule: Q01DX010 (sc), vehicle: saline): 56 % of control
- T/C (dose: 8.0 mg/kg/injection, schedule: Q01DX010 (sc), vehicle: suspension in saline): 44 % of control
- T/C (dose: 15.0 mg/kg/injection, schedule: Q04DX003 (sc), vehicle: suspension in saline): 37 % of control and 52 % of control
- T/C (dose: 16.0 mg/kg/injection, schedule: Q01DX010 (sc), vehicle: suspension in saline): 2 % of control
- T/C (dose: 32.0 mg/kg/injection, schedule: Q01DX010 (sc), vehicle: saline): 2 % of control

Compound: CN(C)c1ccc(C(=C2C=CC(=[N+](C)C)C=C2)c2ccc(N(C)C)cc2)cc1 (tested in a mixture with another compound)
- T/C (dose: 15.0 mg/kg/injection, schedule: Q04DX003 (sc), vehicle: saline with Tween-80): 70 % of control
- T/C (dose: 30.0 mg/kg/injection, schedule: Q04DX003 (sc), vehicle: saline with Tween-80): 104 % of control
- T/C (dose: 60.0 mg/kg/injection, schedule: Q04DX003 (sc), vehicle: saline with Tween-80): 97 % of control
- T/C (dose: 120.0 mg/kg/injection, schedule: Q04DX003 (sc), vehicle: saline with Tween-80): 82 % of control

Compound: O=[N+]([O-])O.O=[N+]([O-])O.[NH-]C1CCCCC1[NH-].[Pt+2] (stereo not drawn)
- T/C (dose: 1.0 mg/kg/injection, schedule: Q01DX010 (sc), vehicle: dextrose): 62 % of control
- T/C (dose: 2.0 mg/kg/injection, schedule: Q01DX010 (sc), vehicle: dextrose): 27 % of control

Compound: CC1=CC2c3cccc4[nH]cc(c34)CC2N(C)C1 (stereo not drawn)
- T/C (dose: 12.5 mg/kg/injection, schedule: Q04DX003 (sc), vehicle: suspension in saline): 153 % of control

Compound: COc1cc2c(c(OC)c1OC)-c1c(cc3c(c1OC)OCO3)CC(C)C(C)(O)C2OC(=O)c1ccccc1 (stereo not drawn)
- T/C (dose: 300.0 mg/kg/injection, schedule: Q04DX003 (sc), vehicle: saline + alcohol): 68 % of control
- T/C (dose: 600.0 mg/kg/injection, schedule: Q04DX003 (sc), vehicle: saline + alcohol): 82 % of control
- T/C (dose: 1200.0 mg/kg/injection, schedule: Q04DX003 (sc), vehicle: saline + alcohol): 79 % of control
- T/C (dose: 2400.0 mg/kg/injection, schedule: Q04DX003 (sc), vehicle: saline + alcohol): 88 % of control

Compound: CCCN1COC(OCC)C(C)(C)C1 (stereo not drawn)
- T/C [2]: 98 % of control
- T/C [3]: 94 % of control
- T/C [4]: 73 % of control

Compound: O=c1n(CC2CO2)c(=O)n(CC2CO2)c(=O)n1CC1CO1 (stereo not drawn)
- T/C (dose: 25.0 mg/kg/injection, schedule: Q04DX003 (sc), vehicle: saline): 26 % of control
- T/C (dose: 50.0 mg/kg/injection, schedule: Q04DX003 (sc), vehicle: saline): 4 % of control

Compound: O=C(O)C1CC(c2ccccc2)=NN1c1ccccc1 (stereo not drawn)
- T/C (dose: 200.0 mg/kg/injection, schedule: Q04DX003 (sc), vehicle: water): 72 % of control
- T/C (dose: 400.0 mg/kg/injection, schedule: Q04DX003 (sc), vehicle: water): 72 % of control

Compound: NC(=S)N/N=C/c1ccc(OC(=O)COc2ccc(Cl)cc2)cn1
- T/C [2]: 112 % of control
- T/C [3]: 88 % of control
- T/C [4]: 92 % of control

Compound: Cc1cc(NC(=S)SCc2ccc3c(c2)OCO3)ccc1Cl
- T/C [5]: 106 % of control
- T/C [6]: 104 % of control
- T/C [7]: 118 % of control
- T/C [8]: 88 % of control

Compound: Cc1ccc2c(ccc(CC(=S)[S-])[n+]2C)c1
- T/C (dose: 50.0 mg/kg/injection, schedule: Q01DX010 (sc), vehicle: Klucel (hydroxypropylcellulose) (HPC)): 57 % of control
- T/C (dose: 100.0 mg/kg/injection, schedule: Q01DX010 (sc), vehicle: Klucel (hydroxypropylcellulose) (HPC)): 80 % of control
- T/C (dose: 200.0 mg/kg/injection, schedule: Q01DX010 (sc), vehicle: Klucel (hydroxypropylcellulose) (HPC)): 28 % of control
- T/C (dose: 400.0 mg/kg/injection, schedule: Q01DX010 (sc), vehicle: Klucel (hydroxypropylcellulose) (HPC)): 107 % of control

Compound: CC(Oc1ccccc1-c1ccccc1)C(=O)N(C)C (stereo not drawn)
- T/C [2]: 82 % of control
- T/C [3]: 102 % of control
- T/C [4]: 114 % of control
- T/C (dose: 2400.0 mg/kg/injection, schedule: Q04DX003 (sc), vehicle: saline with Tween-80): 60 % of control

Compound: CCc1ccc(C2=C(O)C(=O)C(c3ccccc3)=C(O)C2=O)cc1
- T/C [5]: 100 % of control
- T/C [6]: 100 % of control
- T/C [7]: 77 % of control

Compound: Cc1cc(Br)c2nsnc2c1[N+](=O)[O-]
- T/C (dose: 150.0 mg/kg/injection, schedule: Q04DX003 (ip), vehicle: saline with Tween-80): 104 % of control
- T/C (dose: 300.0 mg/kg/injection, schedule: Q04DX003 (ip), vehicle: saline with Tween-80): 74 % of control
- T/C (dose: 600.0 mg/kg/injection, schedule: Q04DX003 (ip), vehicle: saline with Tween-80): 97 % of control
- T/C (dose: 1200.0 mg/kg/injection, schedule: Q04DX003 (ip), vehicle: saline with Tween-80): 159 % of control

Compound: C[n+]1c2cc(N)ccc2cc2ccc(N)cc21
- T/C (dose: 1.56 mg/kg/injection, schedule: Q01DX010 (sc), vehicle: saline): 79 % of control
- T/C (dose: 3.13 mg/kg/injection, schedule: Q01DX010 (sc), vehicle: saline): 66 % of control
- T/C (dose: 6.25 mg/kg/injection, schedule: Q01DX010 (sc), vehicle: saline): 100 % of control

Compound: S=C(Nc1ccc(Cl)c(Cl)c1)N1c2ccccc2-n2cccc2C1c1cccnc1 (stereo not drawn)
- T/C [6]: 123 % of control
- T/C [7]: 89 % of control
- T/C [8]: 108 % of control
- T/C (dose: 2400.0 mg/kg/injection, schedule: Q04DX003 (sc), vehicle: Klucel (hydroxypropylcellulose) (HPC)): 108 % of control

Compound: NCCc1ccc(O)c(O)c1
- T/C (dose: 100.0 mg/kg/injection, schedule: Q01DX010 (sc), vehicle: saline): 77 % of control
- T/C (dose: 200.0 mg/kg/injection, schedule: Q01DX010 (sc), vehicle: saline): 62 % of control
- T/C (dose: 400.0 mg/kg/injection, schedule: Q01DX010 (sc), vehicle: saline): 80 % of control
- T/C (dose: 800.0 mg/kg/injection, schedule: Q01DX010 (sc), vehicle: saline): 61 % of control

Compound: C/C=C/c1cc2c(c(=O)o1)C(=O)[C@@H](O)[C@H](C)O2
- T/C (dose: 50.0 mg/kg/injection, schedule: Q04DX003 (sc), vehicle: saline with Tween-80): 114 % of control
- T/C (dose: 100.0 mg/kg/injection, schedule: Q04DX003 (sc), vehicle: saline with Tween-80): 93 % of control
- T/C (dose: 200.0 mg/kg/injection, schedule: Q04DX003 (sc), vehicle: saline with Tween-80): 101 % of control

Compound: COc1cccc2c1C(=O)c1c(O)c3c(c(O)c1C2=O)C[C@@](O)(C(C)=O)C[C@@H]3OC1CC(N)C(O)C(C)O1 (stereo partly drawn)
- T/C (dose: 0.5 mg/kg/injection, schedule: Q01DX010 (sc), vehicle: saline): 161 % of control
- T/C [1]: 78 % of control and 89 % of control
